{"source": "patent US8003372B2", "about": "“Device for performing cell assays” (The University Court of the University of Glasgow, priority 2002, dated 2011)", "tested_on": "adult ventricular myocytes", "method": "Single cardiac myocytes were isolated from rabbit ventricles by collagenase digestion (D. A. Eisner, C. G. Nichols, S. C. O'Neill, G. L. Smith and M. Valdeomillos, The effects of metabolic inhibition on intracellular calcium an pH in isolated rat ventricular cells, Journal of Physiology, 411, (1989), 393-418) and kept in Base Krebs Solution, containing 120 mM NaCl, 20 mM sodium N-hydroxyethylpiperazine-N′-2-ethane sulphonic acid, 5.4 mM KCl, 0.52 mM NaH2PO4, 3.5 mM MgCl2.6H2O, 20 mM Taurine, 10 mM Creatine, 100 mM Glucose, 0.1% BSA, 0.1 mM CaCl2. The pH was adjusted to 7.4 with 100 mM NaOH.\nSarcomere length and intracellular Ca^2+ concentration ([Ca^2+]i) were monitored simultaneous using the fluorescence-contractility System of Ionoptix (Milton, Mass., USA). Ventricular myocytes were loaded with Fluo-3 by incubation for 30 min in 20 μM Fluo-3 AM solution (Molecular Probes). […] To measure the possible change in extracellular pH during field stimulation, 10 μM BCECF (Molecular Probes) was added to the bath and the emission was recorded using the same filter set as for Fluo-3. […]\nSymmetric biphasic rectangular pulses were generated across the electrodes. […] A voltage-current converter was used to read the current response of one electrode together with the corresponding voltage into a 20 MHz 4 channel acquisition card (PCI-9812, Adlink, Taiwan). A TTL signal synchronous to the biphasic pulses was fed into the reader of the PMT-current to mark each pulse arrival on the fluorescence trace for off-line event averaging. After filling the microchambers with electrolyte (buffer), the current evoked on the individual stimulation electrodes was monitored to assure the ionic connection between the microelectrodes in each chamber, prior to the addition of cardiac muscle cells. The measured current was integrated to give a measure of the total amount of net-charge added to the microchamber, and the polarization of the electrode surface. […]"}
{"smiles": "N#CC(C#N)=NNc1ccc(OC(F)(F)F)cc1", "note": "[FCCP]", "values": [{"measurement": "Ca2+ transients evoked at 0.5 Hz", "setting": "1 μM FCCP, 10 minutes after the 50 min time point of continual stimulation, 100 pL chamber", "value": "ceased almost completely"}, {"measurement": "response of the cell to electrical stimuli (Ca2+ transient)", "setting": "1 μM FCCP, after 50 min continual stimulation at alternating frequencies of 0.5 and 1.0 Hz, 100 pL chamber", "value": "no longer responded to every single stimulus with a Ca^2+ transient of normal amplitude"}, {"measurement": "excitability of the cell after washing out", "setting": "after washing out FCCP, changing the buffer and a 5 min rest interval", "value": "regained its excitability"}]}
